Here are results for one compound from patent US20030134869A1, “Novel therapeutic use of nicergoline” (priority 1998, published 2003).

Each structure is given as a SMILES string.

Assay [1] deals with motor neurons in motor neuron-enriched cultures. Nature of the assay: Neuronal death in motor neuron-enriched cultures in the absence of trophic factor. In kind it is cell-based. The conditions noted are these: p<0.05. The method, then:
The effect of nicergoline has therefore been determined in a degeneration model which is induced by depriving cultured motor neurons of neurotrophic factor.
(§1) The motor neuron-enriched cultures are prepared using the centrifugation method which was described by R. L. SCHNAAR and A. E. SCHAFFNER, J. Neurosci., 1, 204-217 (1981) and modified by W. CAMU and C. E. HENDERSON, J. Neurosci. Methods, 44, 59-70 (1992). The motor neurons are spread, at a density of 2500 cells per plate, on 35 mm culture plates which have previously been coated with laminin/ornithine in accordance with the method of A. G. ESTEVEZ et al., J. Neurosci., 18 (3), 923-931 (1998). The cultures are then maintained in L15 medium (GIBCO BRL) containing sodium bicarbonate (22 mM), conalbumin (0.1 mg/ml), putrescine (0.1 mM), insulin (5 μg/ml), sodium selenite ([…]), glucose (20 mM), progesterone (21 nM), penicillin (100 IU/ml) and streptomycin (100 μg/ml).
More than 70% of the cells are immunoreactive for the neurotrophin p75 receptor and the Islet ½ markers for spinal motor neurons. […]
The number of motor neurons is estimated by counting the labeled cells in an area of 0.4-1 cm^2 under a microscope which enlarges 200 times. In all cases, the values are expressed as a percentage of the number of motor neurons which are present in cultures maintained using trophic factors. […]

Assay [2] relates to motor neurons in astrocyte/motor neuron co-cultures. Nature of the assay: Survival of motor neurons in astrocyte/motor neuron co-cultures. In kind it is cell-based, rats. The conditions noted are these: for % OF LABELED MOTOR NEURONS: vehicle alone = 100 ± 9.4. Here is the method:
as §1
The astrocytes are obtained from young, one-day-old rats using the slightly modified method of R. P. SANETO and J. DE VELLIS as described in Neurochemistry a practical approach (A. J. TURNER and H. S. St JOHN) IRL Press, Oxford-Washington D.C., pp. 27-63. The spinal cords are dissected out under sterile conditions and freed of meninges and dorsal ganglia. Five to ten spinal cords are transferred into PBS (phosphate buffer saline) and cut before being incubated at 37° C. for 25 minutes in PBS to which 0.25% trypsin has been added. The enzymatic treatment is stopped by adding 10 ml of Dulbecco's modified Eagle medium (DMEM), to which 10% fetal calf serum (FCS) has been added, and the cells are collected by centrifugation. Another step of mechanical dissociation is performed using the end of a 1 ml pipette. The cells are spread, at a density of 1.5-2×10^6 cells per 25 cm^2 of culture medium, in DMEM containing 10% FCS. After 2 days in vitro, the cultures are fed every day. When a visible monolayer of cells has been completed, the cultures are stirred at 250 rpm for 48 hours and, on the following day, the monolayers are treated with cytosine arabinoside (10^−5 M) for 48 hours. The astrocyte monolayers are then amplified to a density of five on 35 mm culture plates for initially 25 cm^2 culture flasks.
The spinal astrocyte cultures consist, to an extent of more than 98%, of flat, polygonal cells which are immunoreactive for the glial fibrillar acid protein (GFAP). The monolayers are exposed to the product to be tested and then incubated with the motor neuron medium in order to obtain a conditioned culture medium. This medium is transferred and tested at different dilutions in order to determine its effects on neuronal survival.
The cells are fixed in 4% paraformaldehyde and 0.1% glutaraldehyde in PBS (pH 7.4 and at 4° C. for 15 minutes) and in a cold methanolic solution. […]

Take `CO[C@]12C[C@@H](COC(=O)c3cncc(Br)c3)CN(C)[C@@H]1Cc1cn(C)c3cccc2c13` [Nicergoline, (8β)-10-methoxy-1,6-dimethylergoline-8-methanol-5-bromonicotinate]: the “increase of the survival of the motor neurons” value in assay [1] was 13%. The “% OF LABELED MOTOR NEURONS” value was determined as 115.7 ± 16% in assay [2] (nicergoline 0.1 μM); 145.5 ± 24 % in assay [2] (nicergoline 1 μM, p < 0.05 vs vehicle); 163.7 ± 22.5 % in assay [2] (nicergoline 10 μM, p < 0.01 vs vehicle). For the same compound, the “increase of the survival of motor neurons as compared with cocultures treated with the vehicle alone” value in assay [2] (nicergoline 10 μM) is 63.7%.
